In patent US20250003952A1, “SENOLYTIC DRUG SCREENING METHOD AND SENOLYTIC DRUG” (KYOTO UNIVERSITY, priority 2021, published 2025):

Tests used:
glycolytic metabolism = experiment: Glycolytic metabolism (glucose consumption, lactate production) in etoposide-induced senescent IMR90 cells; type: cell-based, human; details: 20 μM or 40 μM for 48 hours
Protocol: Next, young cells (within 1 month of continuous culture) of the IMR90 cells were treated with 100 μM etoposide for 48 hours to acquire senescent cells. […] After the nutlin treatment, the medium was collected, and glucose consumption was evaluated and lactate production was measured. The lactate level is calculated as a value (μmol/mg/h) obtained by measuring the amount of lactate secreted into the medium per hour (μmol/h) and correcting the same by the total cell protein (mg) and is expressed as a value relative to the actual value on day 0. The glucose consumption is calculated as a value (μmol/mg/h) obtained by measuring the amount of glucose decreased from the medium per hour (μmol/h) and correcting the same by the total cell protein (mg) and is expressed as a value relative to the actual value on day 0. Glucose and lactate were measured by using a Glucose assay kit (BioVision) (upper diagram in FIG. 8) and a Lactate assay kit (BioVision) (lower diagram in FIG. 8), respectively.

HIF-2α = HIF-2α protein (Western blot) and mRNA expression in IMR90 cells; type: cell-based, human
Source text: As a result, it was observed that the HIF-2α protein decreased in the nutlin 3b-treated group and the BI-D1870-treated group (upper diagram and lower diagram in FIG. 22).
An oncogenic Ras was introduced into young cells (within 1 month of continuous culture) of IMR90 cells to induce senescent cells (OIS). […] It is known that ubiquitination is induced by phosphorylation in the vicinity of a ubiquitination site (Hagai et al., 2012). The consensus sequences (K/R-K/R-x-x-S/T) for phosphorylation by Chk1 located at the N-terminus of HIF-2α were conserved, and these were named Motif1 (including Ser12 residues) and Motif2 (including Ser19 residues) (FIG. 40, SEQ ID NOs: 77 to 81).

aged C57BL/6 mice = experiment: Nutlin 3b administration to aged mice for 2 months, RT-PCR of senescence and inflammation markers; type: in vivo, mouse; details: 90 weeks, 11.63 mg/kg intraperitoneal once a week for 2 months
Protocol: Specifically, 16 aged C57BL/6 mice at 90 weeks of age were provided. The mice were divided into two groups (control: 8 mice, agent group: 8 mice), and intraperitoneal injection administration once a week was continued for 2 months. […] One week after the end of the last administration, all mice were dissected, and RNA was extracted from each organ. Senescence markers and inflammation markers were evaluated by RT-PCR.

BIM gene = BIM gene expression in Ras-induced senescent IMR90 cells; type: cell-based, human; details: senescent (OIS) IMR90 cells; 48 hours
Protocol: An oncogenic Ras was introduced into young cells (within 1 month of continuous culture) of IMR90 cells to induce senescent cells (OIS).
An oncogenic Ras was introduced into young cells (within 1 month of continuous culture) of IMR90 cells to induce senescent cells (OIS). The senescent cells were transfected with an HIF-2α-specific siRNA (SEQ ID NO: 9) to knock down HIF-2α. After that, the expression of the BIM gene, which is an apoptosis-inducing gene, was analyzed (FIG. 26).

PGAM-Chk1 binding [1] = target: T1, PGAM-Chk1 binding (Homo sapiens, UniProt O14757+P18669); experiment: PGAM-Chk1 binding by anti-Chk1 immunoprecipitation and anti-PGAM Western blotting in Ras-induced senescent IMR90 cells; type: cell-based; details: 20 μM or 40 μM for 48 hours, then MG132 6 hours
T1 construct: endogenous in cells; host or cells: IMR90 human primary fibroblasts made senescent by retroviral oncogenic Ras
T1 sequence (P18669 2-254 limits assumed): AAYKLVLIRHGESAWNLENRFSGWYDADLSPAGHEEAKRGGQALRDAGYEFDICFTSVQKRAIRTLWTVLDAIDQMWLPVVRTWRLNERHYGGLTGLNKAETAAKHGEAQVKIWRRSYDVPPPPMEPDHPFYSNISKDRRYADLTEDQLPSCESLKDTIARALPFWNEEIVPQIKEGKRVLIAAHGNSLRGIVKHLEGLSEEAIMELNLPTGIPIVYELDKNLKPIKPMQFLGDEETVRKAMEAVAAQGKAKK
T1 sequence (O14757 1-476): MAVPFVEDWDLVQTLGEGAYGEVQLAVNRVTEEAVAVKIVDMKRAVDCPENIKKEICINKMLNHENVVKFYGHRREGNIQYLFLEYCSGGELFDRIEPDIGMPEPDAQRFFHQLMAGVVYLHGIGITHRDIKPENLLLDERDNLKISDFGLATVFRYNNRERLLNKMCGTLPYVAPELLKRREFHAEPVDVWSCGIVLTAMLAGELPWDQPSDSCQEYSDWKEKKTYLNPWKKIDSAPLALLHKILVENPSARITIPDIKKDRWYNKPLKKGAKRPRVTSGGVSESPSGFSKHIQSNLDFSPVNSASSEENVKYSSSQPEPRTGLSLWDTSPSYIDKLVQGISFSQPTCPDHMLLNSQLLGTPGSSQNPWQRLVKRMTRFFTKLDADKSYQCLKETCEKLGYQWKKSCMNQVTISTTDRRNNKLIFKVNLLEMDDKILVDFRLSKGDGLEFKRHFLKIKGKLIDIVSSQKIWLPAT
Protocol: Human primary fibroblasts, IMR90 cells, were obtained from the JCRB Cell Bank. An oncogenic Ras mutation was retrovirally introduced into young cells (within 1 month of continuous culture) of the IMR90 cells to induce cellular senescence. […] After that, these cells were treated with MG132 for 6 hours, and cell lysates were prepared. The obtained cell lysates were immunoprecipitated with an anti-Chk1 antibody. The resulting immunoprecipitate was used for Western blotting with an anti-PGAM antibody to evaluate PGAM-Chk1 binding.
Next, in the same manner as above, IMR90 cells were used to prepare stress-induced senescent cells by introducing an oncogenic mutated Ras gene. The senescent cells were transfected with an RSK1 siRNA (SEQ ID NO: 7) or a control to knock down RSK1. The resulting cells were collected, and proteins were extracted. The resulting protein extract was immunoprecipitated with an anti-Chk1 antibody. The resulting immunoprecipitate was used for Western blotting with an anti-PGAM antibody to evaluate PGAM-Chk1 binding.

PGAM-Chk1 binding [2] = target: T2, PGAM-Chk1 binding (Homo sapiens, UniProt O14757+P18669); experiment: Nano-Bit PGAM-Chk1 binding in young and etoposide-induced senescent IMR90 cells; type: cell-based; details: etoposide-induced senescent IMR90 cells; 20 μM or 40 μM for 48 hours
T2 construct: expressed in transfected cells
Protocol: In addition, PGAM and Chk1 kinase genes tagged with Nano-Bit tags were introduced into IMR90 cells to prepare a cell line capable of stable expression Young cells (within 1 month of continuous culture) of the IMR90 cells were treated with 100 uM etoposide for 48 hours to induce cellular senescence.
T2 sequence (P18669 whole entry, one chain of several): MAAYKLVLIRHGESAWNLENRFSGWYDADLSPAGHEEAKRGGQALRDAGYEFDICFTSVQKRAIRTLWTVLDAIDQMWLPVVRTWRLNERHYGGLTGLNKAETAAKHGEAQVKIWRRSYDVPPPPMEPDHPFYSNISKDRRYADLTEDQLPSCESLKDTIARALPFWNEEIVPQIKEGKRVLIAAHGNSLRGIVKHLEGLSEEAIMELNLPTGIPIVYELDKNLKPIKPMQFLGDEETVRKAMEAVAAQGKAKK

PGAM-Chk1 binding [3] = target: T2, PGAM-Chk1 binding; experiment: Nano-Bit PGAM-Chk1 binding in cancer cell line H1299; type: cell-based; details: H1299 cells; 40 μM for 12, 24, and 48 hours
Source text: PGAM and Chk1 kinase genes tagged with Nano-Bit tags were introduced into the cancer cell line H1299 to prepare a cell line capable of stable expression. […] The treated cells were used to measure intracellular luciferase luminescence signals by Nano-Bit for each.

## COc1ccc(C2=N[C@H](c3ccc(Cl)cc3)[C@H](c3ccc(Cl)cc3)N2C(=O)N2CCNC(=O)C2)c(OC(C)C)c1 [nutlin 3b]
Glycolytic metabolism
  glucose consumption: suppressed in a dose-dependent manner
  lactate production: suppressed in a dose-dependent manner
HIF-2α; senescent (OIS) IMR90 cells
  HIF-2α protein expression: suppressed
  influence on HIF-2α mRNA: relatively small
HIF-2α; young and senescent cells, different concentrations for 96 hours
  HIF-2α protein: decreased
Aged C57BL/6 mice
  inflammatory markers (RT-PCR, organs): reduced
  senescence markers (RT-PCR, organs): reduced
BIM gene
  expression of the apoptosis-inducing gene BIM: increased
PGAM-Chk1 binding [1]
  PGAM-Chk1 binding (interaction): inhibit PGAM-Chk1 interaction to the same extent
PGAM-Chk1 binding [2]
  potentiation of PGAM-Chk1 binding (intracellular luminescence signals of Nano-Bit): suppressed by the nutlin 3b treatment in a dose-dependent manner
PGAM-Chk1 binding [3]
  luciferase luminescence signal by Nano-Bit (PGAM-Chk1 binding): treatment time-dependent decrease
